These results are taken from ChEMBL document CHEMBL1201862, “PubChem BioAssay data set” (2004).

Among the test systems are MDA-N; PC-3; SNB-19; HOP-62; A549; SK-OV-3; HCC 2998; HCT-116; ACHN; M14; NCI-H522; NCI/ADR-RES; SN12C; SW-620; HL-60; HCT-15; MDA-MB-231; RXF 393; CAKI-1; SF-268.
Holding throughout (experiment): NCI-60 cell line screen, 48 h

SMILES strings stand for the structures.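 All cell lines were grown in 96-well plates and treated with compound for 48 hours. GI50 = concentration required for 50% inhibition of growth.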 Active and inactive are the calls of the source. Rule as the data show it: active = GI50 up to about 1.1 µM and inactive = higher. Some results are limits rather than exact numbers.

With `CC(C)CCC1(O)O[C@H]2C[C@H]3[C@@H]4CCC5CC(=O)C=C[C@]5(C)[C@H]4CC[C@]3(C)[C@H]2[C@@H]1C` (stereo not given in full), the GI50 was 13.2 µM (inactive) with MDA-N; 5.02 µM (inactive) in the assay with PC-3; 17.5 µM (inactive) with SNB-19; 15 µM (inactive) with HOP-62; 14.7 µM (inactive) in the assay with A549; 18.8 µM (inactive) in the assay on SK-OV-3. Moreover, the GI50 is 0.148 µM (active) in the assay with HCC 2998; 6.79 µM (inactive) with HCT-116; 13.7 µM (inactive) in the assay with ACHN; 15.9 µM (inactive) with M14; 1.8 µM (inactive) in the assay on NCI-H522; 15.6 µM (inactive) in the assay on NCI/ADR-RES. Also, the GI50 in the assay on SN12C is 14.4 µM (inactive); in the assay on SW-620, 12.1 µM (inactive); in the assay on HL-60, 4.45 µM (inactive); in the assay on HCT-15, 11.2 µM; with MDA-MB-231 it was 14.5 µM (inactive); in the assay with RXF 393 it was 11.8 µM (inactive). Also, the GI50 is 14.5 µM (inactive) in the assay with CAKI-1 and 13.4 µM (inactive) with SF-268.

Turning to `CO/C(N)=C(C#N)/N=C/c1ccsc1`, the GI50 in the assay with MDA-N is 28.5 µM (inactive); in the assay with PC-3, 81.1 µM (inactive); in the assay with SNB-19, > 100 µM (inactive); in the assay on HOP-62, > 100 µM (inactive); in the assay with A549 it was > 100 µM (inactive); with SK-OV-3, > 100 µM (inactive). The GI50 in the assay on HCC 2998 was > 100 µM (inactive); in the assay on HCT-116 it was 40 µM (inactive); in the assay on ACHN it was > 100 µM (inactive); with M14, 29 µM (inactive); with NCI-H522, 23.9 µM (inactive); in the assay on NCI/ADR-RES, > 100 µM (inactive). The GI50 in the assay with SN12C is > 100 µM (inactive); in the assay with SW-620, 53.2 µM (inactive); in the assay with HL-60 it was 13.1 µM (inactive); with HCT-15 it was 34.3 µM; in the assay on MDA-MB-231, 32.7 µM (inactive); in the assay with RXF 393, 31.8 µM (inactive). The GI50 was 37.2 µM (inactive) in the assay on CAKI-1 and 44.7 µM (inactive) with SF-268.

Regarding `O=C(O)CCCSc1ccccc1`, the GI50 with MDA-N, in the assay with PC-3, in the assay on SNB-19, with HOP-62, in the assay on A549 and in the assay with SK-OV-3 was > 100 µM (inactive) throughout. Further, the GI50 in the assay with HCC 2998, with HCT-116, in the assay with ACHN, with M14, in the assay with NCI-H522 and in the assay with NCI/ADR-RES was > 100 µM (inactive) each time. In addition, the GI50 in the assay with SN12C was > 100 µM (inactive); in the assay on SW-620 it was > 100 µM (inactive); in the assay with HL-60 it was > 100 µM (inactive); with HCT-15, over 100 µM; in the assay on MDA-MB-231, > 100 µM (inactive); in the assay with RXF 393 it was > 100 µM (inactive). Moreover, the GI50 in the assay with CAKI-1 and in the assay on SF-268 was > 100 µM (inactive) each time.

For `CCCCC1NC=Nc2c1ccc1c2[nH]c2ccccc21` (stereo not given), the GI50 in the assay with MDA-N is 1.75 µM (inactive); in the assay with PC-3, 1.69 µM (inactive); with SNB-19 it was 4.58 µM (inactive); with HOP-62 it was 5.32 µM (inactive); in the assay with A549, 2.3 µM (inactive); with SK-OV-3, 5.87 µM (inactive). Further, the GI50 is 1.71 µM (inactive) with HCC 2998; 1.91 µM (inactive) in the assay on HCT-116; 3.61 µM (inactive) in the assay with ACHN; 2.41 µM (inactive) with M14; 1.84 µM (inactive) in the assay on NCI-H522; 1.95 µM (inactive) with NCI/ADR-RES. Besides, the GI50 in the assay on SN12C is 2.89 µM (inactive); in the assay on SW-620, 1.95 µM (inactive); in the assay with HL-60, 1.78 µM (inactive); in the assay on HCT-15, 2.39 µM; in the assay on MDA-MB-231, 1.73 µM (inactive); with RXF 393 it was 0.713 µM (active). In addition, the GI50 in the assay with CAKI-1 was 3.77 µM (inactive); in the assay on SF-268, 4 µM (inactive).
